Tested on: HSV-2 G strain
Assay: HSV-2 Antiviral Assay (Vero cells, cell viability)
Type: cell-based
Conditions: Human alphaherpesvirus 2, Vero, 120 h, Vero cells, 160 TCID50 HSV-2 G strain, 5 days, cell viability
Outline: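 Antiviral readout is survival of infected Vero cells: after 5 days at 37 °C with 160 TCID50 HSV-2 G strain plus serially diluted compound (8 points, 3-fold, 0.5% DMSO), WST-8 was added for 3 h and absorbance measured at 460/620 nm. Cells seeded at 1.0×10^4 per well.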

Compound | EC50
Cc1nc(N2CCCN(c3ccc(-c4cc(C(F)(F)F)cc5c4c(F)cn5C)cc3)C2=O)sc1S(N)(=O)=O [Compound 297] | 0.1 to 1 µM
Cc1nc(N2CCCN(c3ccc(-c4cc(F)cc5c4ccn5C(F)F)cc3)C2=O)sc1S(N)(=O)=O [Compound 299] | < 0.1 µM
Cc1nc(N2CCCN(c3ccc(-c4ccc(C#N)c5c4ccn5C)cc3)C2=O)sc1S(N)(=O)=O [Compound 300] | 0.1 to 1 µM
COc1cc(-c2ccc(N3CCCN(c4nc(C)c(S(N)(=O)=O)s4)C3=O)cc2)c2ccn(C)c2c1 [Compound 301] | < 0.1 µM
Cc1nc(N2CCCN(c3ccc(-c4cc(C#N)cc5c4ccn5C)cc3)C2=O)sc1S(N)(=O)=O [Compound 302] | 0.1 to 1 µM
COc1cc(-c2ccc(N3CCCN(c4nc(C)c(S(N)(=O)=O)s4)C3=O)cc2)c2nsnc2c1 [Compound 303] | < 0.1 µM
Cc1nc(N2CCCN(c3ccc(-c4cc(C#N)cc5nsnc45)cc3)C2=O)sc1S(N)(=O)=O [Compound 304] | < 0.1 µM
Cc1nc(N2CCCN(c3ccc(-c4snc5c(F)cc(F)cc45)cc3)C2=O)sc1S(N)(=O)=O [Compound 306] | < 0.1 µM
Cc1nc(N2CCCN(c3ccc(-c4snc5c(F)ccc(F)c45)cc3)C2=O)sc1S(N)(=O)=O [Compound 307] | 0.1 to 1 µM
Cc1nc(N2CCCN(c3ccc(-c4snc5c(F)cc(F)c(F)c45)cc3)C2=O)sc1S(N)(=O)=O [Compound 308] | 0.1 to 1 µM
Cc1nc(N2CCCN(c3ccc(-c4snc5ccc(-c6ccccc6)cc45)cc3)C2=O)sc1S(N)(=O)=O [Compound 309] | < 0.1 µM
Cc1nc(N2CCCN(c3ccc(-c4cc(F)ccc4F)c4scnc34)C2=O)sc1S(N)(=O)=O [Compound 311] | 0.1 to 1 µM
Cc1nc(N2CCCN(c3ccc(-c4ccccc4)c4sncc34)C2=O)sc1S(N)(=O)=O [Compound 312] | 1 to 5 µM
Cc1nc(N2CCCCN(c3ccc(-c4cc(F)cc5nsnc45)cc3)C2=O)sc1S(N)(=O)=O [Compound 313] | < 0.1 µM
Cc1nc(N2CCN(c3ccc(-c4cc(F)cc5nsnc45)cc3)C2=O)sc1S(N)(=O)=O [Compound 314] | < 0.1 µM
Cc1nc(N2CC(C)CN(c3ccc(-c4ccccc4F)cc3)C2=O)sc1S(N)(=O)=O (centres unmarked) [Compound 315] | < 0.1 µM
Cc1nc(N2C[C@@H](C)CN(c3ccc(-c4ccccc4F)cc3)C2=O)sc1S(N)(=O)=O [Compound 317] | < 0.1 µM
Cc1nc(N2CC(C)CN(c3ccc(-c4ccccc4Cl)cc3)C2=O)sc1S(N)(=O)=O (centres unmarked) [Compound 321] | < 0.1 µM
Cc1nc(N2CC(C)CN(c3ccc(-c4ccccc4)cc3)C2=O)sc1S(N)(=O)=O (centres unmarked) [Compound 326] | < 0.1 µM
COc1ccc(F)cc1-c1ccc(N2CC(C)CN(c3nc(C)c(S(N)(=O)=O)s3)C2=O)cc1 (centres unmarked) [Compound 329] | < 0.1 µM
Cc1nc(N2CCC(C)N(c3ccc(-c4cc(F)ccc4F)cc3)C2=O)sc1S(N)(=O)=O (centres unmarked) [Compound 332] | < 0.1 µM
Cc1nc(N2CC3(CC3)CN(c3ccc(-c4nnco4)cc3)C2=O)sc1S(N)(=O)=O [Compound 335] | 1 to 5 µM

Compound | EC50
Cc1nc(N2CC3(CCCC3)CN(c3ccc(-c4cc(F)ccc4F)cc3)C2=O)sc1S(N)(=O)=O [Compound 336] | < 0.1 µM
Cc1nc(N2CC3(CCCC3)CN(c3ccc(-c4cccc5ncsc45)cc3)C2=O)sc1S(N)(=O)=O [Compound 337] | < 0.1 µM
Cc1nc(N2CC3(COC3)CN(c3ccc(-c4cc(F)cc5nsnc45)cc3)C2=O)sc1S(N)(=O)=O [Compound 340] | < 0.1 µM
Cc1nc(N2CC3(COC3)CN(c3ccc(-c4cc(F)cc5nonc45)cc3)C2=O)sc1S(N)(=O)=O [Compound 341] | < 0.1 µM
COc1c(F)cc(F)cc1-c1ccc(N2CC(C(C)(C)O)CN(c3nc(C)c(S(N)(=O)=O)s3)C2=O)cc1 (centres unmarked) [Compound 345] | 0.1 to 1 µM
Cc1nc(N2CC(C(C)(C)O)CN(c3ccc(-c4snc5ccccc45)cc3)C2=O)sc1S(N)(=O)=O (centres unmarked) [Compound 348] | 0.1 to 1 µM
Cc1nc(N2CC(C(F)F)CN(c3ccc(-c4cc(F)ccc4F)cc3)C2=O)sc1S(N)(=O)=O (centres unmarked) [Compound 349] | < 0.1 µM
Cc1nc(N2CC(O)CN(c3ccc(-c4cc(F)ccc4F)cc3)C2=O)sc1S(N)(=O)=O (centres unmarked) [Compound 353, 2-(3-(2′,5′-difluoro-[1,1′-biphenyl]-4-yl)-5-hydroxy-2-oxotetrahydropyrimidin-1(2H)-yl)-4-methylthiazole-5-sulfonamide] | < 0.1 µM
Cc1nc(N2CC(CO)CN(c3ccc(-c4cc(F)ccc4F)cc3)C2=O)sc1S(N)(=O)=O (centres unmarked) [Compound 356] | < 0.1 µM
COC1CN(c2ccc(-c3cc(F)ccc3F)cc2)C(=O)N(c2nc(C)c(S(N)(=O)=O)s2)C1 (centres unmarked) [Compound 357, 2-(3-(2′,5′-difluoro-[1,1′-biphenyl]-4-yl)-5-methoxy-2-oxotetrahydropyrimidin-1(2H)-yl)-4-methylthiazole-5-sulfonamide] | 1 to 5 µM
Cc1nc(N2CC(C#N)CN(c3ccc(-c4cc(F)ccc4F)cc3)C2=O)sc1S(N)(=O)=O (centres unmarked) [Compound 360, 2-(5-cyano-3-(2′,5′-difluoro-[1,1′-biphenyl]-4-yl)-2-oxotetrahydropyrimidin-1(2H)-yl)-4-methylthiazole-5-sulfonamide] | < 0.1 µM
COc1c(F)cc(F)cc1-c1ccc(N2CC(F)CN(c3nc(C)c(S(N)(=O)=O)s3)C2=O)cc1 (centres unmarked) [Compound 366] | < 0.1 µM
Cc1nc(N2CC(F)(F)CN(c3ccc(-c4cc(F)ccc4F)cc3)C2=O)sc1S(N)(=O)=O [Compound 367] | < 0.1 µM
Cc1nc(N2CC(C(F)(F)F)CN(c3ccc(-c4cc(F)ccc4F)cc3)C2=O)sc1S(N)(=O)=O (centres unmarked) [Compound 368] | < 0.1 µM
COc1c(F)cc(F)cc1-c1ccc(N2CC(C(F)(F)F)CN(c3nc(C)c(S(N)(=O)=O)s3)C2=O)cc1 (centres unmarked) [Compound 372] | < 0.1 µM
COc1c(F)cc(F)cc1-c1ccc(N2CC(F)(F)CN(c3nc(C)c(S(N)(=O)=O)s3)C2=O)cc1 [Compound 375] | < 0.1 µM
COc1ccc(F)cc1-c1ccc(N2CC3(COC3)CN(c3nc(C)c(S(N)(=O)=O)s3)C2=O)cc1 [Compound 378] | < 0.1 µM
Cc1nc(N2CC3(COC3)CN(c3ccc(-c4cc(F)ccn4)cc3)C2=O)sc1S(N)(=O)=O [Compound 379] | < 0.1 µM
Cc1nc(N2CC(C(=O)O)CN(c3ccc(-c4cc(F)ccc4F)cc3)C2=O)sc1S(N)(=O)=O (centres unmarked) [Compound 380] | 1 to 5 µM
Cc1nc(N2CC(C(N)=O)CN(c3ccc(-c4cc(F)ccc4F)cc3)C2=O)sc1S(N)(=O)=O (centres unmarked) [Compound 381] | 0.1 to 1 µM
COC(=O)C1CN(c2ccc(-c3cc(F)ccc3F)cc2)C(=O)N(c2nc(C)c(S(N)(=O)=O)s2)C1 (centres unmarked) [Compound 384] | < 0.1 µM
Cc1nc(N2CCCN(c3ccc(-c4cc(F)ccc4F)cc3)C2=O)sc1S(=O)(=O)NO [Compound 385] | 0.1 to 1 µM

Compound | EC50
CONS(=O)(=O)c1sc(N2CCCN(c3ccc(-c4cc(F)ccc4F)cc3)C2=O)nc1C [Compound 386] | < 0.1 µM
COCCNS(=O)(=O)c1sc(N2CCCN(c3ccc(-c4cc(F)ccc4F)cc3)C2=O)nc1C [Compound 387] | < 0.1 µM
Cc1nc(N2CCCN(c3ccc(-c4cc(F)ccc4F)cc3)C2=O)sc1S(=O)(=O)NCCO [Compound 388, 2-(3-(2′,5′-difluoro-[1,1′-biphenyl]-4-yl)-2-oxotetrahydropyrimidin-1(2H)-yl)-N-(2-hydroxyethyl)-4-methylthiazole-5-sulfonamide] | < 0.1 µM
Cc1nc(N2CCCN(c3ccc(-c4cc(F)ccc4F)cc3)C2=O)sc1S(=O)(=O)NCCCCO [Compound 389] | < 0.1 µM
COCCCCNS(=O)(=O)c1sc(N2CCCN(c3ccc(-c4cc(F)ccc4F)cc3)C2=O)nc1C [Compound 390] | < 0.1 µM
Cc1nc(N2CCCN(c3ccc(-c4cc(F)ccc4F)cc3)C2=O)sc1S(=O)(=O)NCCCF [Compound 391] | < 0.1 µM
Cc1nc(N2CCCN(c3ccc(-c4cc(F)ccc4F)cc3)C2=O)sc1S(=O)(=O)NCC(F)(F)CO [Compound 392] | < 0.1 µM
Cc1nc(N2CCCN(c3ccc(-c4cc(F)ccc4F)cc3)C2=O)sc1S(=O)(=O)NCCC(C)(C)O [Compound 393] | < 0.1 µM
Cc1nc(N2CCCN(c3ccc(-c4cc(F)ccc4F)cc3)C2=O)sc1S(=O)(=O)NCC(C)CO (centres unmarked) [Compound 394] | < 0.1 µM
Cc1nc(N2CCCN(c3ccc(-c4cc(F)ccc4F)cc3)C2=O)sc1S(=O)(=O)NC[C@@H](C)CO [Compound 395] | < 0.1 µM
Cc1nc(N2CCCN(c3ccc(-c4cc(F)ccc4F)cc3)C2=O)sc1S(=O)(=O)NC[C@H](C)CO [Compound 396] | < 0.1 µM
Cc1nc(N2CCCN(c3ccc(-c4cc(F)ccc4F)cc3)C2=O)sc1S(=O)(=O)N1CCC(N)C1 (centres unmarked) [Compound 397] | 0.1 to 1 µM
Cc1nc(N2CCCN(c3ccc(-c4cc(F)ccc4F)cc3)C2=O)sc1S(=O)(=O)N1CC[C@H](N)C1 [Compound 398] | 0.1 to 1 µM
Cc1nc(N2CCCN(c3ccc(-c4cc(F)ccc4F)cc3)C2=O)sc1S(=O)(=O)N1CC[C@@H](N)C1 [Compound 399] | 0.1 to 1 µM
Cc1nc(N2CCCN(c3ccc(-c4cc(F)ccc4F)cc3)C2=O)sc1S(=O)(=O)N[C@@H]1CC[C@@H](O)C1 [Compound 400] | < 0.1 µM
Cc1nc(N2CCCN(c3ccc(-c4cc(F)ccc4F)cc3)C2=O)sc1S(=O)(=O)NC(C)(C)CO [Compound 402] | 0.1 to 1 µM
Cc1nc(N2CCCN(c3ccc(-c4cc(F)ccc4F)cc3)C2=O)sc1S(=O)(=O)N1CC2(COC2)C1 [Compound 403] | < 0.1 µM
Cc1nc(N2CCCN(c3ccc(-c4cc(F)ccc4F)cc3)C2=O)sc1S(=O)(=O)NCC1COC1 [Compound 404] | < 0.1 µM
Cc1nc(N2CCCN(c3ccc(-c4cc(F)ccc4F)cc3)C2=O)sc1S(=O)(=O)NN [Compound 405] | 0.1 to 1 µM
Cc1nc(N2CCCN(c3ccc(-c4cc(F)ccc4F)cc3)C2=O)sc1S(=O)(=O)Nc1ccccn1 [Compound 406] | < 0.1 µM

Same assay, conditions: Vero cells, 160 TCID50 HSV-2 G strain, 5 days, cell viability

Compound | EC50
Cc1nc(N2C[C@H](C)CN(c3ccc(-c4ccccc4F)cc3)C2=O)sc1S(N)(=O)=O [Compound 324] | < 0.1 µM
